Where a SMILES comes first, the peptide text is derived from it. [ ]: non-standard residue; d: D form. dPhe(4-Cl) = N[C@H](Cc1ccc(Cl)cc1)C(=O)O; NMeL = CN[C@@H](CC(C)C)C(=O)O; pGlu = O=C1CC[C@@H](C(=O)O)N1; ΔPro = O=C(O)[C@@H]1C=CCN1
Legend:
[1] = system: male rats; experiment: 14-day daily injection in male rats: gonadal function, hormones, androgen-dependent behavior, fertility and recovery; assay type: in vivo, rat; settings: 1 milligram daily for 14 days
Excerpt: The peptide is used at a level effective to reduce testes and seminal vesicles weights and also to inhibit spermatogenesis after a 14-day administration to male rats. […] Prostate weights of male rats recover in 2-3 weeks and seminal vesicles weights in 4-5 weeks. It is preferred to use dosage levels in the range of from about 0.1 to about 1 milligram per rat per day, which can be administered without detrimental side effects.
(§1) Male rats (about 320 grams each) are each treated with 1 milligram of the peptide synthesized in Example I, once a day, for 14 days by injection in 0.2 ml. of corn oil. All the rats show a decrease in testes and seminal vesicles weight, spermatogenesis and plasma androgen levels.
Full recovery of testes and seminal vesicle weights, androgen-dependent behavior and spermatogenesis ultimately occurs following cessation of the 14-day peptide administration. […] Fertility, as assessed by the ability to impregnate females, is restored in all of the rats which have not been sacrificed within 6 weeks after cessation of the injections.
as §1, with “A first group (I) of male” for “Male”, “Peptide A” for “the peptide”, “III, every day” for “I, once a day,”, “days,” for “days”, “levels. […]” for “levels.”

[2] = system: release of gonadotropins by the pituitary gland; settings: versus [des His2]-LRF; cited from earlier work

| Compound | side effects / damage [1] | potency as inhibitor of the release of gonadotropins, relative to the same peptide with Gly in the 6-position [2] [times more potent] |
| --- | --- | --- |
| CC(=O)N1CC=C[C@H]1C(=O)N[C@H](Cc1ccc(Cl)cc1)C(=O)N[C@H](Cc1c[nH]c2ccccc12)C(=O)N[C@@H](CO)C(=O)N[C@@H](Cc1ccc(O)cc1)C(=O)N[C@H](Cc1c[nH]c2ccccc12)C(=O)N(C)[C@@H](CC(C)C)C(=O)N[C@@H](CCCNC(=N)N)C(=O)N1CCC[C@H]1C(=O)NCC(N)=O [Example I, [Ac-dehydro Pro^1, pCl--D--Phe^2, D--Trp^3,6, NαMeLeu^7]-LRF] (Ac-[ΔPro][dPhe(4-Cl)][dW]SY[dW][NMeL]RPG-NH2) | without harmful side effects or irreversible damage |  |
| [pGlu]WSY[dA]LRPG-NH2 [[des His^2, D-Ala^6]-LRF] |  | 3 |

Reference: patent publication US4489061A, “Treatment of male mammals” (The Salk Institute for Biological Studies, priority 1982, dated 1984)
